The values that follow come from US8859546B2, “Picolinamide inhibitors of kinases” (AbbVie Inc., priority 2011, dated 2014).

The target in this experiment is T1, ALK (Homo sapiens, UniProt Q9UM73).
T1 construct: purchased Millipore
T1 sequence (Q9UM73 19-1620): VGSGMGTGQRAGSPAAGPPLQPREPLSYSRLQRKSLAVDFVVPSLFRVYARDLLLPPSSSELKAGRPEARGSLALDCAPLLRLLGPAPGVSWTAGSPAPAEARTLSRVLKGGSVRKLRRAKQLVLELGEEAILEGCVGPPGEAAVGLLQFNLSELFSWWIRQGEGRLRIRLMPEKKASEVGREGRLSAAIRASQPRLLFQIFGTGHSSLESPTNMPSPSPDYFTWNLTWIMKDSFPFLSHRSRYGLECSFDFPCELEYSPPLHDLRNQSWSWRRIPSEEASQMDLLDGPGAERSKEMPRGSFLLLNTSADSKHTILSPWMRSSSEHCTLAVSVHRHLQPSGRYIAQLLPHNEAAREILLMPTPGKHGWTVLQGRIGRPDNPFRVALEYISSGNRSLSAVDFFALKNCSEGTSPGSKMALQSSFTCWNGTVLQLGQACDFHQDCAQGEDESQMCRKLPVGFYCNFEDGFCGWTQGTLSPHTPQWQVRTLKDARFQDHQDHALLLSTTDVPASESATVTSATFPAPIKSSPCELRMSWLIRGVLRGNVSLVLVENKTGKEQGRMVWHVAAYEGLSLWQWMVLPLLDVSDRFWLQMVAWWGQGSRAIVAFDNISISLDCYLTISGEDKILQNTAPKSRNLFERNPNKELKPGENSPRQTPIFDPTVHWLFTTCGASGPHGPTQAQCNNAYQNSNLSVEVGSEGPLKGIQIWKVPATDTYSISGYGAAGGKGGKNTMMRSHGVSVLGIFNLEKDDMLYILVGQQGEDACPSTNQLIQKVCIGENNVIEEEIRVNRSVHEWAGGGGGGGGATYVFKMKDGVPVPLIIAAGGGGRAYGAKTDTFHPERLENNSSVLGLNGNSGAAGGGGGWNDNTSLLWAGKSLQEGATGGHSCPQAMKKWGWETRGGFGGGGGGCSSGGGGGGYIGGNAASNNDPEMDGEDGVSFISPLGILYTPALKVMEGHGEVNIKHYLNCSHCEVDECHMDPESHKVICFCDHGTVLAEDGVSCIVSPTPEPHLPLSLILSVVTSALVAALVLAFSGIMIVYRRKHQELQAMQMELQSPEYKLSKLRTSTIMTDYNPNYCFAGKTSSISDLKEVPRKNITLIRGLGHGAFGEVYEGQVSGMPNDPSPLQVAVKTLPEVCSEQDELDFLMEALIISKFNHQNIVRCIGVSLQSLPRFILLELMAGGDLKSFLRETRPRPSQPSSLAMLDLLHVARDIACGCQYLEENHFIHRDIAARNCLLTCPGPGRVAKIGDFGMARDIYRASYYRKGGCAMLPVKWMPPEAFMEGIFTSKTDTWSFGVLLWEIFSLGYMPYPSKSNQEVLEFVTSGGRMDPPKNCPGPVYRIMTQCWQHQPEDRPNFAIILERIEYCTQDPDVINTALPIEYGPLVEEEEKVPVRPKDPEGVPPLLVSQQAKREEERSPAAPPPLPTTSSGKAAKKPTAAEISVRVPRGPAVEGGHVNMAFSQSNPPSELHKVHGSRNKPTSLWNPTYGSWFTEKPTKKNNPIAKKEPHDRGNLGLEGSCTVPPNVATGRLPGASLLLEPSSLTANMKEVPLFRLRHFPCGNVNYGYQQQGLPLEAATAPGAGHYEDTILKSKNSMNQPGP
The experiment can be described thus: ALK kinase assay (HTRF), apparent Ki. It is filed as biochemical. The following applies: apparent Ki from IC50 by Cheng-Prusoff; ALK (Millipore), 50 μM ATP; read-out: HTRF_ALK Human-Ki. As to the method: The following procedure is used to determine ALK Activity.
ALK kinase assays were conducted with the indicated final concentrations unless otherwise specified. In 384 well black plates (Axygen), 8 μl of compound (2% DMSO) was incubated with 8 μl Lck-peptide substrate (0.5 μM, biotin-Ahx-GAEEEIYAAFFA-COOH) and 8 μl of a mixture of ALK (3 nM, Millipore) and ATP (50 μM) in reaction buffer (50 mM Hepes, pH 7.4; 10 mM MgCl2; 2 mM MnCl2; 0.1 mM sodium orthovanadate; 0.01% BSA and 1 mM DTT (added fresh before assay) for 1 h at room temperature. Reactions were then quenched by the addition of 30 μl quench solution (streptavidin-allophycocyanin and Europium-cryptate PT66 monoclonal antibody in 40 mM Hepes, pH 7.4; 480 mM KF; 66 mM EDTA; 0.01% Tween-20; and 0.1% BSA) at room temperature. Plates were read 1 h after quenching on an Envision Multilaber Reader and IC50 values were calculated using a sigmoidal fit of the concentration/inhibition response curves. These values were converted to apparent Ki values using the Cheng-Prusoff relationship.
Alternatively, 4 nM ALK (Millipore) and 50 μM ATP were pre-incubated for 30 min at room temperate in 384 well plates (Corning 3676) in 2.5× reaction buffer (125 nM SEB from Cisbio Bioassays, 12.5 mM MgCl2, 5 mM MnCl2, and 2.5 mM DTT). Reactions were initiated by the addition of 4 μl ALK-ATP mixture to 2 μl compounds (2% DMSO) and 4 μl TK-substrate biotin (Cisbio Bioassays). After incubation for 1 h at room temperature, reactions were quenched in 10 μl stop buffer (Cisbio detection buffer containing Streptavididn-XL665 and Eu-Cryptate PT66 monoclonal antibody). Plates were read 1 h after quenching on an Envision Multilaber Reader and IC50 values were calculated using a sigmoidal fit of the concentration/inhibition response curves. These values were converted to apparent Ki values using the Cheng-Prusoff relationship. Results are shown in Table 1 A correlates to an Ki=<100 nM, B correlates to an Ki between 100 nM and 1 μM, C correlates to an Ki=>1 μM.
Turning to `COc1ccc(Cc2cnc(C(N)=O)c(Nc3ccc(N4CCN(C)CC4)cc3)c2)cc1` [Example 16, 5-(4-methoxybenzyl)-3-{[4-(4-methylpiperazin-1-yl)phenyl]amino}pyridine-2-carboxamide], the Ki lay in the range of 100 to 1000 nM. Next, `CN1CCN(c2ccc(Nc3cc(Cc4ccc5ccccc5c4)cnc3C(N)=O)cc2)CC1` [Example 17, 3-{[4-(4-methylpiperazin-1-yl)phenyl]amino}-5-(2-naphthylmethyl)pyridine-2-carboxamide]: greater than 1000 nM. Regarding `CN1CCN(c2ccc(Nc3cc(Cc4cc(F)cc(F)c4)cnc3C(N)=O)cc2)CC1` [Example 18, 5-(3,5-difluorobenzyl)-3-{[4-(4-methylpiperazin-1-yl)phenyl]amino}pyridine-2-carboxamide], the Ki is less than 100 nM. `CN1CCN(c2ccc(Nc3cc(Cc4ccc(F)c(F)c4)cnc3C(N)=O)cc2)CC1` [Example 19, 5-(3,4-difluorobenzyl)-3-{[4-(4-methylpiperazin-1-yl)phenyl]amino}pyridine-2-carboxamide]: the Ki fell in the range of 100 to 1000 nM. Regarding `CN1CCN(c2ccc(Nc3cc(Cc4ccc(F)cc4F)cnc3C(N)=O)cc2)CC1` [Example 20, 5-(2,4-difluorobenzyl)-3-{[4-(4-methylpiperazin-1-yl)phenyl]amino}pyridine-2-carboxamide], the Ki lay within 100 to 1000 nM. Next, `CN1CCN(c2ccc(Nc3cc(Cc4cc(F)ccc4F)cnc3C(N)=O)cc2)CC1` [Example 21, 5-(2,5-difluorobenzyl)-3-{[4-(4-methylpiperazin-1-yl)phenyl]amino}pyridine-2-carboxamide]: less than 100 nM; `COc1cccc(Cc2cnc(C(N)=O)c(Nc3ccc(N4CCN(C)CC4)cc3)c2)c1` [Example 22, 5-(3-methoxybenzyl)-3-{[4-(4-methylpiperazin-1-yl)phenyl]amino}pyridine-2-carboxamide]: 100 to 1000 nM; `CN1CCN(c2ccc(Nc3cc(Cc4ccccc4Cl)cnc3C(N)=O)cc2)CC1` [Example 23, 5-(2-chlorobenzyl)-3-{[4-(4-methylpiperazin-1-yl)phenyl]amino}pyridine-2-carboxamide]: 100 to 1000 nM. As to `CN1CCN(c2ccc(Nc3cc(Cc4cccc(Cl)c4)cnc3C(N)=O)cc2)CC1` [Example 24, 5-(3-chlorobenzyl)-3-{[4-(4-methylpiperazin-1-yl)phenyl]amino}pyridine-2-carboxamide], the Ki was in the range of 100 to 1000 nM. The figure for `CN1CCN(c2ccc(Nc3cc(Cc4ccc(Cl)cc4)cnc3C(N)=O)cc2)CC1` [Example 25, 5-(4-chlorobenzyl)-3-{[4-(4-methylpiperazin-1-yl)phenyl]amino}pyridine-2-carboxamide] is greater than 1000 nM; for `Cc1cccc(Cc2cnc(C(N)=O)c(Nc3ccc(N4CCN(C)CC4)cc3)c2)c1` [Example 26, 5-(3-methylbenzyl)-3-{[4-(4-methylpiperazin-1-yl)phenyl]amino}pyridine-2-carboxamide] it is 100 to 1000 nM. In the case of `Cc1ccccc1Cc1cnc(C(N)=O)c(Nc2ccc(N3CCN(C)CC3)cc2)c1` [Example 27, 5-(2-methylbenzyl)-3-{[4-(4-methylpiperazin-1-yl)phenyl]amino}pyridine-2-carboxamide], the Ki was greater than 1000 nM. As for `COc1ccccc1Cc1cnc(C(N)=O)c(Nc2ccc(N3CCN(C)CC3)cc2)c1` [Example 28, 5-(2-methoxybenzyl)-3-{[4-(4-methylpiperazin-1-yl)phenyl]amino}pyridine-2-carboxamide], the Ki lay in the range of 100 to 1000 nM. With `Cc1ccc(Cc2cnc(C(N)=O)c(Nc3ccc(N4CCN(C)CC4)cc3)c2)cc1` [Example 29, 5-(4-methylbenzyl)-3-{[4-(4-methylpiperazin-1-yl)phenyl]amino}pyridine-2-carboxamide], the Ki was in the range of 100 to 1000 nM.

In the case of `CN1CCN(c2ccc(Nc3cc(Cc4c(F)cccc4Cl)cnc3C(N)=O)cc2)CC1` [Example 30, 5-(2-chloro-6-fluorobenzyl)-3-{[4-(4-methylpiperazin-1-yl)phenyl]amino}pyridine-2-carboxamide], the Ki is less than 100 nM. Turning to `CN1CCN(c2ccc(Nc3cc(Cc4c(Cl)cccc4Cl)cnc3C(N)=O)cc2)CC1` [Example 31, 5-(2,6-dichlorobenzyl)-3-{[4-(4-methylpiperazin-1-yl)phenyl]amino}pyridine-2-carboxamide], the Ki is less than 100 nM. Next, `CN1CCN(c2ccc(Nc3cc(Cc4ccccc4-c4ccccc4)cnc3C(N)=O)cc2)CC1` [Example 32, 5-(biphenyl-2-ylmethyl)-3-{[4-(4-methylpiperazin-1-yl)phenyl]amino}pyridine-2-carboxamide]: 100 to 1000 nM; `CN1CCN(c2ccc(Nc3cc(Cc4cccc(C(F)(F)F)c4)cnc3C(N)=O)cc2)CC1` [Example 33, 3-{[4-(4-methylpiperazin-1-yl)phenyl]amino}-5-[3-(trifluoromethyl)benzyl]pyridine-2-carboxamide]: 100 to 1000 nM. Take `CC(c1cccc(F)c1)c1cnc(C(N)=O)c(Nc2ccc(N3CCN(C)CC3)cc2)c1` (stereo not shown) [Example 34, 5-[1-(3-fluorophenyl)ethyl]-3-{[4-(4-methylpiperazin-1-yl)phenyl]amino}pyridine-2-carboxamide]: the Ki was 100 to 1000 nM. Consider `CN1CCN(c2ccc(Nc3cc(C(C)(C)c4cccc(F)c4)cnc3C(N)=O)cc2)CC1` [Example 35, 5-[2-(3-fluorophenyl)propan-2-yl]-3-{[4-(4-methylpiperazin-1-yl)phenyl]amino}pyridine-2-carboxamide], for which the Ki is 100 to 1000 nM. The figure for `CC(c1cccc(F)c1)c1cnc(C(N)=O)c(Nc2ccc(N3CCN(C)CC3)c(Cl)c2)c1` (stereo not shown) [Example 36, 3-{[3-chloro-4-(4-methylpiperazin-1-yl)phenyl]amino}-5-[1-(3-fluorophenyl)ethyl]pyridine-2-carboxamide] is 100 to 1000 nM; for `COc1cc(N2CCN(C)CC2)ccc1Nc1cc(C(C)c2cccc(F)c2)cnc1C(N)=O` (stereo not shown) [Example 37, 5-[1-(3-fluorophenyl)ethyl]-3-{[2-methoxy-4-(4-methylpiperazin-1-yl)phenyl]amino}pyridine-2-carboxamide] it is 100 to 1000 nM; for `COc1cc(N2CCN(C)CC2)ccc1Nc1cc(Cc2c(Cl)cccc2Cl)cnc1C(N)=O` [Example 38, 5-(2,6-dichlorobenzyl)-3-{[2-methoxy-4-(4-methylpiperazin-1-yl)phenyl]amino}pyridine-2-carboxamide] it is less than 100 nM. For the compound `NC(=O)c1ncc(Cc2c(Cl)cccc2Cl)cc1Nc1ccc(N2CCNCC2)cc1` [Example 39, 5-(2,6-dichlorobenzyl)-3-{[4-(piperazin-1-yl)phenyl]amino}pyridine-2-carboxamide], the Ki was less than 100 nM.

Take `CN1CCN(c2ccc(Nc3cc(Cc4cc(F)ccc4Cl)cnc3C(N)=O)cc2Cl)CC1` [Example 40, 5-(2-chloro-5-fluorobenzyl)-3-{[3-chloro-4-(4-methylpiperazin-1-yl)phenyl]amino}pyridine-2-carboxamide]: the Ki lay within 100 to 1000 nM.

For `COc1cc(N2CCNCC2)ccc1Nc1cc(Cc2cc(F)ccc2Cl)cnc1C(N)=O` [Example 41, 5-(2-chloro-5-fluorobenzyl)-3-{[2-methoxy-4-(piperazin-1-yl)phenyl]amino}pyridine-2-carboxamide], the Ki is less than 100 nM. On to `COc1cc(N2CCNCC2)ccc1Nc1cc(Cc2c(F)cccc2Cl)cnc1C(N)=O` [Example 42, 5-(2-chloro-6-fluorobenzyl)-3-{[2-methoxy-4-(piperazin-1-yl)phenyl]amino}pyridine-2-carboxamide], for which the Ki was less than 100 nM. Next, `COc1cc(N2CCN(CCN3CCOCC3)CC2)ccc1Nc1cc(Cc2c(F)cccc2Cl)cnc1C(N)=O` [Example 43, 5-(2-chloro-6-fluorobenzyl)-3-[(2-methoxy-4-{4-[2-(morpholin-4-yl)ethyl]piperazin-1-yl}phenyl)amino]pyridine-2-carboxamide]: 100 to 1000 nM. As to `CCN(CC)CCN1CCN(c2ccc(Nc3cc(Cc4c(F)cccc4Cl)cnc3C(N)=O)c(OC)c2)CC1` [Example 44, 5-(2-chloro-6-fluorobenzyl)-3-[(4-{4-[2-(diethylamino)ethyl]piperazin-1-yl}-2-methoxyphenyl)amino]pyridine-2-carboxamide], the Ki is less than 100 nM.

Turning to `COc1cc(N2CCN(CC(C)(C)O)CC2)ccc1Nc1cc(Cc2c(F)cccc2Cl)cnc1C(N)=O` [Example 45, 5-(2-chloro-6-fluorobenzyl)-3-({4-[4-(2-hydroxy-2-methylpropyl)piperazin-1-yl]-2-methoxyphenyl}amino)pyridine-2-carboxamide], the Ki is 100 to 1000 nM.

As to `COc1cc(N2CCN(C)CC2)ccc1Nc1cc(Cc2c(F)cccc2Cl)cnc1C(N)=O` [Example 46, 5-(2-chloro-6-fluorobenzyl)-3-{[2-methoxy-4-(4-methylpiperazin-1-yl)phenyl]amino}pyridine-2-carboxamide], the Ki was in the range of 100 to 1000 nM.
